Converted amounts (≈) assume the structure as drawn.

Holding throughout (type): functional
Common to all, as to conditions: read-out: ED50 (the source's name)

In one experiment the test system is LOX IMVI. Put plainly: Cytotoxicity against human LOXIMVI cells by sulforhodamine B method. A general note: Sulforhodamine B stains cellular protein and so reports cell mass.
For the next experiment, the system named is SK-MEL-2. Put plainly: Cytotoxicity against human SK-MEL-2 cells by sulforhodamine B method.
A further experiment deals with SNB-19. Put plainly: Cytotoxicity against human SNB19 cells by sulforhodamine B method.
In another experiment the test system is U-251. Put plainly: Cytotoxicity against human U251 cells by sulforhodamine B method.
The test system of the next experiment is SW-620. Put plainly: Cytotoxicity against human SW620 cells by sulforhodamine B method.
The subject of a further experiment is HCT-15. Put plainly: Cytotoxicity against human HCT15 cells by sulforhodamine B method.
A further experiment relates to A549. Put plainly: Cytotoxicity against human A549 cells by sulforhodamine B method.
For the next experiment, the system named is SK-OV-3. Put plainly: Cytotoxicity against human SKOV3 cells by sulforhodamine B method.

Consider `C=C[C@@](C)(CC[C@H]1C(C)=CC[C@H]2C(C)(C)CCC[C@]12C)O[C@@H]1O[C@@H](C)[C@H](O)[C@@H](O)[C@H]1OC(C)=O`, for which the EC50 in the experiment on LOX IMVI, in the experiment with SK-MEL-2, with SNB-19, in the experiment on U-251, in the experiment with SW-620 and in the experiment with HCT-15 was above 10 mg/L each time. Further, the EC50 in the experiment with A549 and in the experiment on SK-OV-3 was above 10 mg/L throughout.
Consider `C=C[C@@](C)(CCC1=C(C)[C@H](OO)C[C@H]2C(C)(C)CCC[C@]12C)O[C@@H]1O[C@@H](C)[C@@H](OC(C)=O)[C@H](O)[C@H]1O`, for which the EC50 in the experiment with LOX IMVI, with SK-MEL-2, in the experiment with SNB-19, in the experiment on U-251, with SW-620 and in the experiment on HCT-15 was above 10 mg/L in each case. In addition, the EC50 in the experiment with A549 and with SK-OV-3 was above 10 mg/L each time.
As for `C=C[C@@](C)(CC[C@H]1C(C)=CC[C@H]2C(C)(C)CCC[C@]12C)O[C@@H]1O[C@@H](C)[C@H](OC(C)=O)[C@@H](O)[C@H]1O`, the EC50 in the experiment with LOX IMVI, with SK-MEL-2, in the experiment with SNB-19, with U-251, in the experiment with SW-620 and in the experiment with HCT-15 was above 10 mg/L throughout. In addition, the EC50 in the experiment with A549 and in the experiment on SK-OV-3 was above 10 mg/L each time.
As to `COc1cccc2c1C(=O)c1c(O)c3c(c(O)c1C2=O)C[C@@](O)(C(=O)CO)C[C@@H]3O[C@H]1C[C@H](N)[C@H](O)[C@H](C)O1` [DOXORUBICIN], the EC50 was 0.001 mg/L (≈ 0.00184 µM) in the experiment on LOX IMVI; 0.002 mg/L (≈ 0.00368 µM) in the experiment with SK-MEL-2; 0.002 mg/L (≈ 0.00368 µM) with SNB-19; 0.001 mg/L (≈ 0.00184 µM) in the experiment on U-251; 0.003 mg/L (≈ 0.00552 µM) with SW-620; 0.006 mg/L (≈ 0.011 µM) in the experiment on HCT-15. The EC50 is 0.001 mg/L (≈ 0.00184 µM) in the experiment on A549 and 0.01 mg/L (≈ 0.0184 µM) in the experiment on SK-OV-3.
Regarding `C=C[C@@](C)(CC[C@H]1C(C)=CC[C@H]2C(C)(C)CCC[C@]12C)O[C@@H]1O[C@@H](C)[C@H](O)[C@@H](OC(C)=O)[C@H]1O`, the EC50 with LOX IMVI, in the experiment on SK-MEL-2, in the experiment on SNB-19, with U-251, in the experiment with SW-620 and in the experiment on HCT-15 was above 10 mg/L throughout. Besides, the EC50 in the experiment with A549 and in the experiment with SK-OV-3 was above 10 mg/L in each case.

The values are drawn from ChEMBL document CHEMBL1150608, “Five new labdane diterpenes from Aster oharai” (2002).
